Measured values taken from US4440757A, “Pharmaceutical composition comprising derivative of aminobenzoic acid for regulating prostaglandin” (priority 1978, dated 1984).

Legend:
male SHR rats [1] = assay: Effect of aspirin on the hypotensive action; type: in vivo, rat (SHR); settings: 100 mg/kg p.o., after 6 hours; for Alteration of blood pressure, Case (b): with aspirin 200 mg/kg before and after; for Alteration of blood pressure, Case (a): without aspirin
Description: It is known that PGs are produced from arachidonic acid and the conversion of arachidonic acid into PGG2 is mediated by cyclooxygenase. Also it is known that aspirin inactivates cyclooxygenase, and that the […] of PGs is completely stopped by the administration of aspirin to a mammal.
Accordingly, the following experiment was carried out: To groups of male SHR rats of 30 to 40 weeks after birth, (a) one of the present substance was forcibly administered orally at 100 mg/kg as a solution in distilled water or an aqueous suspension in 2% solution of carboxymethylcellulose or (b) aspirin was forcibly administered orally, before and after one hour of the administration of the present substance, at 200 mg/kg. The blood pressure of the thus treated rats was measured with the time passage.

male SHR rats [2] = assay: Blood pressure and 6-keto PGF1-α in blood of SHR after 14 days; type: in vivo, rat (SHR); settings: 100 mg/kg/day p.o.; for Content of 6-keto-PGF1-α in blood: control 3; for Blood pressure: control 195
Description: After forcibly administering the present substance (Specimens Nos. 4, 7 and 8) every day for successive 14 days at a rate of 100 mg/kg/day by oral route to groups of male SHR rats, their whole blood was collected on 15th day to obtain the plasma fraction. The ether-extract of the plasma fraction was separated and isolated by thin-layer chromatography and after converting the isolated fraction into methyloximesilyl derivatives, the alteration of 6-keto PGF1-α was examined by gas-chromatography and mass-spectroscopy. In the group to which the present substance was administered, the content of 6-keto PGF1-α was larger together with the reduced blood pressure than in control. This parallelism of the effects leads to the presumption that the effect of the present invention is mediated by prostaglandin.

thoracic aorta, PGI2 = assay: PGI2 production in arterial tissue of diabetic rats; type: in vivo, male Sprague-Dowley rats; settings: 100 mg/kg p.o., diabetic rat; not administered 0.07, normal 0.26
Description: Groups of male Sprague-Dowley rats of body weight of about 200 g are used for the present experiments. Some groups of the rats were intravenously administered with streptozotocin at 80 mg/kg one to three months in advance of the beginning of the present experiment to be in a state of diabetes mellitus. Those rats of the same strain, the same sex and the same age without being administered with streptozotocin were used as control.
The present substances (Specimens Nos. 4, 7 and 8) were respectively administered to the groups of rats suffering from the artificial diabetes mellitus forcibly by oral route at a rate of 100 mg/kg as an aqueous solution in distilled water.
In the next place, the amount of prostaglandin I2 produced in the arterial tissue was measured as follows:
Thoracic aorta of the rat was rapidly extirpated, washed with Krebs' buffer solution at a temperature of 4° C. and cut into thin rings of 1 to 2 mg in weight. Then, into 200 microliters of Krebs' buffer solution, 60 mg of the thus cut aorta were added and the mixture was incubated for 3 min at 22° C.
The amount of prostaglandin I2 (PGI2) produced by the cut aorta was determined on the supernatant liquid (1 to 10 microliters) of the above-mentioned incubated culture in the same manner as in Example 2 using the suppressing action of platelet aggregation as an index, however, using adenosine diphosphate as the agglutinating agent. After preparing a standard calibration curve using an authentic specimen of PGI2, the content of PGI2 of the above-mentioned supernatant liquid was obtained from the standard curve in ng/mg of wet weight of the arterial tissue.

[3] = system: female spontaneously hypertensive rats (SHR); assay: Diuretic effect and 6-keto PGF1α in blood; type: in vivo, rat (SHR); settings: for Level of 6-keto PGF1α in blood: control 3.0
Description: Groups of female spontaneously hypertensive rats (SHR) kept in fasting for 12 hours and abstained from water for 2 hours were treated by forced oral administration of the present substance (each of Specimens Nos. 4, 7 and 8) at respective rates of 1 and 5 g/kg dissolved in 8 ml (per 200 g b.w.) of an aqueous physiological saline solution, control group being administered only with the aqueous physiological saline solution in an amount of 8 ml/200 g b.w.
The amount of excreted urine of the rats was measured every hour from one hour after the administration for 6 times, and the percentages of the volume of urine to the volume of the aqueous physiological saline solution containing the present substance formerly administered (8 ml per 200 g b.w.) are shown in Table 19.
In the next place, after 6 hours of the administration, all animals were sacrificed to collect the whole blood for obtaining its plasma fraction. The ether-extract of the plasma fraction was separated by thin-layer chromatography and after converting the thus separated substances into methyloximesilyl derivatives, the variation of 6 keto PGF1α was examined by gas-chromatography-mass-spectrography.

cats = assay: Pyrexia caused by pyrogen (Shigella dysentriae o-antigen) and PGE in c.s.f.; type: in vivo, cat
Description: The experiments were carried out on cats weighing 3 to 3.5 kg. In an aseptic operation under intraperitoneally administered sodium pentobarbitone at 36 mg/kg, a Collison cannula was implanted into the rostral part of the third ventricle of the cat.
A few days after implantation of the cannula, when the cat had recovered from the operation, specimens of cerebrospinal fluid were collected without anesthesia, whilst the cat was kept unrestrained in its cage, and its rectal temperature was recorded.
The specimens of cerebrospinal fluid (c.s.f.) were assayed immediately after collection, or after having been stored at -2° for 24 to 48 hours, and the determination of PGE in the specimens was carried out as in Example 9 using ^3 H-Prostaglandin E Radioimmunoassay Kit (manufactured by Clinical Assay Co., USA). Rectal temperature was recorded at room temperature (21° to 23° C.) with the thermistor probe inserted about 10 cm deep into the rectum.
As the pyrogen, somatic type o-antigen of Shigella dysentriae was used, and after dissolving 75 ng of the pyrogen into 0.15 ml of a pyrogen-free artificial c.s.f., the solution was injected into the third ventricle through the implanted cannula to induce fever.
After 2 hours of administration, the rectal temperature was measured to confirm the occurrence of pyrexia and then the present substance (each of Specimens Nos. 4, 7 and 8) was forcibly administered orally as an aqueous solution in distilled water at a rate of 100 mg/kg, control being administered only with distilled water in this time.
The rectal temperature of all animals was measured after one hour of the administration of the present substance.
The c.s.f. for the determination of its content of PGE was collected respectively before and after 2 hours of the injection of the pyrogen and after one hour of the administration of the present substance.

[4] = 1 g/kg p.o., 2 hours, control 9
[5] = 1 g/kg p.o., 3 hours, control 22
[6] = 1 g/kg p.o., 4 hours, control 26
[7] = 1 g/kg p.o., 5 hours, control 28
[8] = 1 g/kg p.o., 6 hours, control 30
[9] = 5 g/kg p.o., 2 hours, control 9
[10] = 5 g/kg p.o., 3 hours, control 22
[11] = 5 g/kg p.o., 4 hours, control 26
[12] = 5 g/kg p.o., 5 hours, control 28
[13] = 5 g/kg p.o., 6 hours, control 30
[14] = 1 hour after admin. Specimen, 100 mg/kg p.o., control 10
[15] = 1 hour after admin. Specimen, 100 mg/kg p.o., control 40.7
[16] = 2 hours after admin. pyrogen (before dosing)
[17] = before admin. pyrogen (before dosing)

SMILES | Alteration of blood pressure, Case (b) (male SHR rats [1]) [mmHg] | Alteration of blood pressure, Case (a) (male SHR rats [1]) [mmHg] | Content of 6-keto-PGF1-α in blood (male SHR rats [2]) [ng/mL] | Blood pressure (male SHR rats [2]) [mmHg] | PGI2 (thoracic aorta, PGI2) [ng/mg wet tissue] | Volume of urine ([3]; 1 g/kg p.o., 1 hour, control 2) [%] | Volume of urine [3, 4] [%] | Volume of urine [3, 5] [%] | Volume of urine [3, 6] [%] | Volume of urine [3, 7] [%] | Level of 6-keto PGF1α in blood ([3]; 1 g/kg p.o., 6 hours) [ng/mL] | Volume of urine [3, 8] [%] | Volume of urine ([3]; 5 g/kg p.o., 1 hour, control 2) [%] | Volume of urine [3, 9] [%] | Volume of urine [3, 10] [%] | Volume of urine [3, 11] [%] | Volume of urine [3, 12] [%] | Volume of urine [3, 13] [%] | Amount of PGE in c.s.f. (cats; [14]) | Rectal temperature (cats; [15]) [°C] | other results
O=C(O)c1ccc(NC2OC[C@@H](O)[C@H](O)[C@H]2O)cc1 (stereo partly drawn) [Specimen No. 7, Sodium p-aminobenzoate-N--D-xyloside] | 0 | -20 | 6.5 | 160 | 0.22 ± 0.02 | 4 | 38 | 45 | 48 | 63 | 3.5 | 72 | 5 | 50 | 66 | 80 | 92 | 100 | 6 ng/ml of c.s.f. | 39.5 | Amount of PGE in c.s.f. (cats; [16]): 16 ng/ml of c.s.f.; Rectal temperature (cats; [16]): 41.1 °C; Amount of PGE in c.s.f. (cats; [17]): 2.4 ng/ml of c.s.f.; Rectal temperature (cats; [17]): 38.8 °C
O=C(O)c1ccc(NC2O[C@H](CO)[C@@H](O)[C@H](O)[C@@H]2O)cc1 (stereo partly drawn) [Specimen No. 4, Sodium p-aminobenzoate-N--D-mannoside] | -5 | -20 | 7 | 155 | 0.19 ± 0.04 | 6 | 40 | 46 | 50 | 60 | 3.3 | 63 | 7 | 40 | 50 | 52 | 78 | 91 | 5 ng/ml of c.s.f. | 39.9 | Level of 6-keto PGF1α in blood ([3]; 5 g/kg p.o., 6 hours): 3.5 ng/mL; Amount of PGE in c.s.f. (cats; [16]): 11 ng/ml of c.s.f.; Rectal temperature (cats; [16]): 41.3 °C; Amount of PGE in c.s.f. (cats; [17]): 2.6 ng/ml of c.s.f.; Rectal temperature (cats; [17]): 39.0 °C
C[C@@H]1OC(Nc2ccc(C(=O)O)cc2)[C@H](O)[C@H](O)[C@H]1O (stereo partly drawn) [Specimen No. 8, Sodium p-aminobenzoate-N--L-rhamnoside] | 0 | -15 | 7 | 150 | 0.18 ± 0.04 | 5 | 39 | 47 | 50 | 65 | 3.2 | 68 | 5 | 43 | 60 | 70 | 77 | 93 | 8 ng/ml of c.s.f. | 40.0 | Level of 6-keto PGF1α in blood ([3]; 5 g/kg p.o., 6 hours): 3.7 ng/mL; Amount of PGE in c.s.f. (cats; [16]): 13 ng/ml of c.s.f.; Rectal temperature (cats; [16]): 41.5 °C; Rectal temperature (cats; [17]): 39.1 °C
